Legend:
E. faecalis (Ef) = experiment: Broth microdilution minimum inhibitory concentration (MIC), CLSI; assay type: cell-based; conditions: growth medium with sodium bicarbonate; for MIC: Enterococcus faecalis, read-out: Ef + bicarb MIC
Outline: (§1)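 CLSI M07-A9 broth microdilution, slightly modified: 8 two-fold compound dilutions in triplicate, CAMHB ± bicarbonate (6.25 or 25 mM final) or 0-50% heat-inactivated human serum; 5×10^4 CFU/well.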

A. baumannn (Ab) = experiment: as above; assay type: cell-based; conditions: A. baumannn, growth medium with sodium bicarbonate; for MIC: read-out: Ab + bicarb MIC
Outline: as §1

E. coli (Ec) = experiment: as above; assay type: cell-based; conditions: growth medium with sodium bicarbonate; for MIC: Escherichia coli, read-out: E. coli + bicarb MIC
Outline: as §1

P. aeruginosa (Pa) = experiment: as above; assay type: cell-based; conditions: growth medium with sodium bicarbonate; for MIC: Pseudomonas aeruginosa, read-out: Pa MIC + bicarb
Outline: as §1

S. aureus (Sa) = experiment: as above; assay type: cell-based; conditions: growth medium with sodium bicarbonate; for MIC: Staphylococcus aureus, read-out: Sa + bicarb MIC
Outline: as §1

[1] = system: E. coli S30 extract (bacterial protein synthesis); experiment: E. coli S30 extract coupled transcription-translation luciferase assay (inhibition of bacterial protein synthesis); assay type: biochemical; conditions: % inhibition @ 1 μM, read-out: S30 IC50 (μM/% inhib.)
Outline: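 Luciferase luminescence quantified inhibition of protein synthesis relative to water controls, with no-DNA reactions giving background. Compounds in 2-fold serial dilution (8 levels) were incubated 1 hour at 37 °C with E. coli S30 extract, amino acids and pBESTluc plasmid, then chilled to stop.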

[2] = target: Rabbit Reticulocyte Lysate (eukaryotic protein synthesis); experiment: Rabbit reticulocyte lysate luciferase assay (inhibition of eukaryotic protein synthesis); assay type: biochemical; conditions: % inhibition @ 1 μM, read-out: Rabbit reticulocyte IC50 (μM/% inhib.)
Outline: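 Percent inhibition calculated against water-only controls from luminescence; background set by lysate lacking RNA. Compounds, 8-point 2-fold titration, incubated 90 minutes at 30° C with nuclease-treated rabbit reticulocyte lysate programmed with luciferase control RNA plus complete amino acids.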

CC(Cc1ccc(-n2ccc(NC(=O)N3CCN(C(=O)[C@H]4C[C@H](N)C4)CC3)nc2=O)cc1)N1C[C@@H]2[C@@H](CN)[C@@H]2C1 (stereo partly drawn) [Compound 234]
MIC (E. faecalis (Ef)): > 32 µg/mL | MIC (A. baumannn (Ab)): > 32 µg/mL | MIC (E. coli (Ec)): < 8 µg/mL | MIC (P. aeruginosa (Pa)): > 32 µg/mL | MIC (S. aureus (Sa)): < 8 µg/mL | IC50 [1]: ≥ 1 µM | IC50 [2]: ≥ 1 µM

CC(C)[C@@H](N)CC(=O)N1CCN(C(=O)Nc2ccn(-c3ccc(CC(C)N4C[C@@H]5[C@@H](CN)[C@@H]5C4)cc3)c(=O)n2)CC1 (stereo partly drawn) [Compound 235]
MIC (E. faecalis (Ef)): > 32 µg/mL | MIC (A. baumannn (Ab)): > 32 µg/mL | MIC (E. coli (Ec)): < 8 µg/mL | MIC (P. aeruginosa (Pa)): > 32 µg/mL | MIC (S. aureus (Sa)): < 8 µg/mL | IC50 [1]: ≥ 1 µM | IC50 [2]: ≥ 1 µM

CNCC(=O)N1CCN(C(=O)Nc2ccn(-c3ccc(CC(C)N4C[C@@H]5[C@@H](CN)[C@@H]5C4)cc3)c(=O)n2)CC1 (stereo partly drawn) [Compound 236]
MIC (E. faecalis (Ef)): > 32 µg/mL | MIC (A. baumannn (Ab)): > 32 µg/mL | MIC (E. coli (Ec)): < 8 µg/mL | MIC (P. aeruginosa (Pa)): > 32 µg/mL | MIC (S. aureus (Sa)): 8 to 32 µg/mL | IC50 [1]: ≥ 1 µM | IC50 [2]: ≥ 1 µM

CC(Cc1ccc(-n2ccc(NC(=O)N3CCN(C(=O)C(C)(C)N)CC3)nc2=O)cc1)N1CCC2(CC1)CC2CN (stereo not drawn) [Compound 237]
MIC (E. faecalis (Ef)): > 32 µg/mL | MIC (A. baumannn (Ab)): > 32 µg/mL | MIC (E. coli (Ec)): < 8 µg/mL | MIC (P. aeruginosa (Pa)): > 32 µg/mL | MIC (S. aureus (Sa)): > 32 µg/mL | IC50 [1]: ≥ 1 µM | IC50 [2]: ≥ 1 µM

CC(Cc1ccc(-n2ccc(NC(=O)N3CCN(C(=O)C(C)(C)N)CC3)nc2=O)cc1)N1CCC2(CC(N)C2)C1 (stereo not drawn) [Compound 238]
Ef + bicarb MIC (E. faecalis (Ef)): + (An MIC (μg/mL) value that is 32 μg/mL or greater) | Ab + bicarb MIC (A. baumannn (Ab)): + (An MIC (μg/mL) value that is 32 μg/mL or greater) | E. coli + bicarb MIC (E. coli (Ec)): +++ (An MIC value (μg/mL) that is less than 8 μg/mL) | Pa MIC + bicarb (P. aeruginosa (Pa)): + (An MIC (μg/mL) value that is 32 μg/mL or greater) | Sa + bicarb MIC (S. aureus (Sa)): ++ (An MIC value (μg/mL) that is 8 μg/mL or greater and less than 32 μg/mL) | IC50 [1]: 0.5 to 1 µM | IC50 [2]: ≥ 1 µM

CC(Cc1ccc(-n2ccc(NC(=O)N3CCN(C(=O)C(N)CCCN)CC3)nc2=O)cc1)N1C[C@@H]2[C@@H](CN)[C@@H]2C1 (stereo partly drawn) [Compound 239]
MIC (E. faecalis (Ef)): > 32 µg/mL | MIC (A. baumannn (Ab)): > 32 µg/mL | MIC (E. coli (Ec)): < 8 µg/mL | MIC (P. aeruginosa (Pa)): > 32 µg/mL | MIC (S. aureus (Sa)): 8 to 32 µg/mL | IC50 [1]: < 0.5 µM | IC50 [2]: ≥ 1 µM

CC(Cc1ccc(-n2ccc(NC(=O)N3CCN(C(=O)[C@@H](N)CCCCN)CC3)nc2=O)cc1)N1C[C@@H]2[C@@H](CN)[C@@H]2C1 (stereo partly drawn) [Compound 240]
MIC (E. faecalis (Ef)): > 32 µg/mL | MIC (A. baumannn (Ab)): > 32 µg/mL | MIC (E. coli (Ec)): < 8 µg/mL | MIC (P. aeruginosa (Pa)): > 32 µg/mL | MIC (S. aureus (Sa)): 8 to 32 µg/mL | IC50 [1]: < 0.5 µM | IC50 [2]: ≥ 1 µM

CC(Cc1ccc(-n2ccc(NC(=O)N3CCN(C(=O)C(C)(C)NCS(=O)(=O)O)CC3)nc2=O)cc1)N1C[C@@H]2[C@@H](CNCS(=O)(=O)O)[C@@H]2C1 (stereo partly drawn) [Compound 241]
MIC (E. faecalis (Ef)): 8 to 32 µg/mL | MIC (A. baumannn (Ab)): > 32 µg/mL | MIC (E. coli (Ec)): < 8 µg/mL | MIC (P. aeruginosa (Pa)): > 32 µg/mL | MIC (S. aureus (Sa)): < 8 µg/mL | IC50 [1]: < 0.5 µM | IC50 [2]: ≥ 1 µM

CC(Cc1ccc(-n2ccc(NC(=O)N3CCN(C(=O)C(C)(C)N)CC3)nc2=O)cc1)N1CC2CCC(N)CC2C1 (stereo not drawn) [Compound 242]
Ef + bicarb MIC (E. faecalis (Ef)): + (An MIC (μg/mL) value that is 32 μg/mL or greater) | Ab + bicarb MIC (A. baumannn (Ab)): + (An MIC (μg/mL) value that is 32 μg/mL or greater) | E. coli + bicarb MIC (E. coli (Ec)): +++ (An MIC value (μg/mL) that is less than 8 μg/mL) | Pa MIC + bicarb (P. aeruginosa (Pa)): + (An MIC (μg/mL) value that is 32 μg/mL or greater) | Sa + bicarb MIC (S. aureus (Sa)): ++ (An MIC value (μg/mL) that is 8 μg/mL or greater and less than 32 μg/mL) | IC50 [1]: 0.5 to 1 µM | IC50 [2]: ≥ 1 µM

CC(Cc1ccc(-n2ccc(NC(=O)N3CCN(C(=O)C(C)(C)N)CC3)nc2=O)cc1)N1CC2CCC(N)CC2C1 (stereo not drawn) [Compound 243]
Ef + bicarb MIC (E. faecalis (Ef)): + (An MIC (μg/mL) value that is 32 μg/mL or greater) | Ab + bicarb MIC (A. baumannn (Ab)): + (An MIC (μg/mL) value that is 32 μg/mL or greater) | E. coli + bicarb MIC (E. coli (Ec)): +++ (An MIC value (μg/mL) that is less than 8 μg/mL) | Pa MIC + bicarb (P. aeruginosa (Pa)): + (An MIC (μg/mL) value that is 32 μg/mL or greater) | Sa + bicarb MIC (S. aureus (Sa)): ++ (An MIC value (μg/mL) that is 8 μg/mL or greater and less than 32 μg/mL) | IC50 [1]: 0.5 to 1 µM | IC50 [2]: ≥ 1 µM

CCC(Cc1ccc(-n2ccc(NC(=O)N3CCN(C(=O)C(C)(C)N)CC3)nc2=O)cc1)N1CC2CCC(N)CC2C1 (stereo not drawn) [Compound 244]
Ef + bicarb MIC (E. faecalis (Ef)): ++ (An MIC value (μg/mL) that is 8 μg/mL or greater and less than 32 μg/mL) | Ab + bicarb MIC (A. baumannn (Ab)): + (An MIC (μg/mL) value that is 32 μg/mL or greater) | E. coli + bicarb MIC (E. coli (Ec)): +++ (An MIC value (μg/mL) that is less than 8 μg/mL) | Pa MIC + bicarb (P. aeruginosa (Pa)): + (An MIC (μg/mL) value that is 32 μg/mL or greater) | Sa + bicarb MIC (S. aureus (Sa)): +++ (An MIC value (μg/mL) that is less than 8 μg/mL) | IC50 [1]: 0.5 to 1 µM | IC50 [2]: ≥ 1 µM

CCC(Cc1ccc(-n2ccc(NC(=O)N3CCN(C(=O)C(C)(C)N)CC3)nc2=O)cc1)N1CC2CCC(N)CC2C1 (stereo not drawn) [Compound 245]
Ef + bicarb MIC (E. faecalis (Ef)): + (An MIC (μg/mL) value that is 32 μg/mL or greater) | Ab + bicarb MIC (A. baumannn (Ab)): + (An MIC (μg/mL) value that is 32 μg/mL or greater) | E. coli + bicarb MIC (E. coli (Ec)): +++ (An MIC value (μg/mL) that is less than 8 μg/mL) | Pa MIC + bicarb (P. aeruginosa (Pa)): + (An MIC (μg/mL) value that is 32 μg/mL or greater) | Sa + bicarb MIC (S. aureus (Sa)): ++ (An MIC value (μg/mL) that is 8 μg/mL or greater and less than 32 μg/mL) | IC50 [1]: 0.5 to 1 µM | IC50 [2]: ≥ 1 µM

CC(C)(N)C(=O)N1C[C@H]2CN(C(=O)Nc3ccn(-c4ccc(CN5C[C@@H]6[C@@H](N)[C@@H]6C5)cc4)c(=O)n3)C[C@H]2C1 [Compound 246]
MIC (E. faecalis (Ef)): > 32 µg/mL | MIC (A. baumannn (Ab)): > 32 µg/mL | MIC (E. coli (Ec)): > 32 µg/mL | MIC (P. aeruginosa (Pa)): > 32 µg/mL | MIC (S. aureus (Sa)): > 32 µg/mL | IC50 [1]: ≥ 1 µM | IC50 [2]: ≥ 1 µM

NC[C@@H]1[C@H]2CN(C(=O)Nc3ccn(-c4ccc(CN5C[C@@H]6[C@@H](N)[C@@H]6C5)cc4)c(=O)n3)C[C@@H]12 [Compound 247]
MIC (E. faecalis (Ef)): > 32 µg/mL | MIC (A. baumannn (Ab)): > 32 µg/mL | MIC (E. coli (Ec)): > 32 µg/mL | MIC (P. aeruginosa (Pa)): > 32 µg/mL | MIC (S. aureus (Sa)): > 32 µg/mL | IC50 [1]: ≥ 1 µM | IC50 [2]: ≥ 1 µM

NCC1CCN(C(=O)Nc2ccn(-c3ccc(CN4C[C@@H]5[C@@H](N)[C@@H]5C4)cc3)c(=O)n2)CC1 [Compound 248]
MIC (E. faecalis (Ef)): > 32 µg/mL | MIC (A. baumannn (Ab)): > 32 µg/mL | MIC (E. coli (Ec)): > 32 µg/mL | MIC (P. aeruginosa (Pa)): > 32 µg/mL | MIC (S. aureus (Sa)): > 32 µg/mL | IC50 [1]: ≥ 1 µM | IC50 [2]: ≥ 1 µM

N[C@@H]1[C@H]2CN(Cc3ccc(-n4ccc(NC(=O)N5C[C@@H]6[C@@H](N)[C@@H]6C5)nc4=O)cc3)C[C@@H]12 [Compound 249]
MIC (E. faecalis (Ef)): > 32 µg/mL | MIC (A. baumannn (Ab)): > 32 µg/mL | MIC (E. coli (Ec)): 8 to 32 µg/mL | MIC (P. aeruginosa (Pa)): > 32 µg/mL | MIC (S. aureus (Sa)): > 32 µg/mL | IC50 [1]: ≥ 1 µM | IC50 [2]: ≥ 1 µM

NCCC1CCN(C(=O)Nc2ccn(-c3ccc(CN4C[C@@H]5[C@@H](N)[C@@H]5C4)cc3)c(=O)n2)CC1 [Compound 250]
MIC (E. faecalis (Ef)): > 32 µg/mL | MIC (A. baumannn (Ab)): > 32 µg/mL | MIC (E. coli (Ec)): > 32 µg/mL | MIC (P. aeruginosa (Pa)): > 32 µg/mL | MIC (S. aureus (Sa)): > 32 µg/mL | IC50 [1]: ≥ 1 µM | IC50 [2]: ≥ 1 µM

NC[C@@H]1CCN(C(=O)Nc2ccn(-c3ccc(CN4C[C@@H]5[C@@H](N)[C@@H]5C4)cc3)c(=O)n2)C1 [Compound 251]
MIC (E. faecalis (Ef)): > 32 µg/mL | MIC (A. baumannn (Ab)): > 32 µg/mL | MIC (E. coli (Ec)): > 32 µg/mL | MIC (P. aeruginosa (Pa)): > 32 µg/mL | MIC (S. aureus (Sa)): > 32 µg/mL | IC50 [1]: ≥ 1 µM | IC50 [2]: ≥ 1 µM
